Assay results published in ChEMBL document CHEMBL5303573, “Mapping human microbiome drug metabolism by gut bacteria and their genes” (Nature, 2019).

How the values were obtained:
[1] = The drug is tested on Escherichia coli strain: BW25113 for biotransformation. The drug concentrations were measured before and after a 12-h incubation by liquid-chromatography-coupled mass spectrometry (LC–MS); settings: 2 µM
[2] = parabacteroides distasonis, 12 h, 2 µM
Description: The drug is tested on Parabacteroides distasonis strain: ATCC8503 for biotransformation. The drug concentrations were measured before and after a 12-h incubation by liquid-chromatography-coupled mass spectrometry (LC–MS)

[3] = The drug is tested on Clostridium asparagiforme strain: DSM15981 for biotransformation. The drug concentrations were measured before and after a 12-h incubation by liquid-chromatography-coupled mass spectrometry (LC–MS); assay type: ADME; parameters: dose 2 uM, timepoint 0 vs 12 hours; settings: enterocloster asparagiformis, 2 µM
[4] = The drug is tested on Bacteroides uniformis strain: ATCC8492 for biotransformation. The drug concentrations were measured before and after a 12-h incubation by liquid-chromatography-coupled mass spectrometry (LC–MS); settings: 2 µM
[5] = segatella copri, 12 h, 2 µM
Description: The drug is tested on Prevotella copri strain: DSM18205 for biotransformation. The drug concentrations were measured before and after a 12-h incubation by liquid-chromatography-coupled mass spectrometry (LC–MS)

[6] = bacteroides thetaiotaomicron, 12 h, 2 µM
Description: The drug is tested on Bacteroides thetaiotaomicron strain: 7330 for biotransformation. The drug concentrations were measured before and after a 12-h incubation by liquid-chromatography-coupled mass spectrometry (LC–MS)

[7] = The drug is tested on Clostridium symbiosum strain: ATCC14940 for biotransformation. The drug concentrations were measured before and after a 12-h incubation by liquid-chromatography-coupled mass spectrometry (LC–MS); settings: 2 µM
[8] = The drug is tested on Enterococcus faecalis strain: V583 for biotransformation. The drug concentrations were measured before and after a 12-h incubation by liquid-chromatography-coupled mass spectrometry (LC–MS); settings: 2 µM
[9] = The drug is tested on Odoribacter splanchnicus strain: fecal isolate for biotransformation. The drug concentrations were measured before and after a 12-h incubation by liquid-chromatography-coupled mass spectrometry (LC–MS); settings: 2 µM
[10] = The drug is tested on Clostridium scindens strain: ATCC35704 for biotransformation. The drug concentrations were measured before and after a 12-h incubation by liquid-chromatography-coupled mass spectrometry (LC–MS); settings: 2 µM
[11] = parabacteroides johnsonii, 12 h, 2 µM
Description: The drug is tested on Parabacteroides johnsonii strain: DSM18315 for biotransformation. The drug concentrations were measured before and after a 12-h incubation by liquid-chromatography-coupled mass spectrometry (LC–MS)

[12] = The drug is tested on Bacteroides caccae strain: ATCC43185 for biotransformation. The drug concentrations were measured before and after a 12-h incubation by liquid-chromatography-coupled mass spectrometry (LC–MS); settings: 2 µM
[13] = The drug is tested on Bacteroides cellulosilyticus strain: DSM14838 for biotransformation. The drug concentrations were measured before and after a 12-h incubation by liquid-chromatography-coupled mass spectrometry (LC–MS); settings: 2 µM
[14] = bacteroides eggerthii, 12 h, 2 µM
Description: The drug is tested on Bacteroides eggerthii strain: DSM20697 for biotransformation. The drug concentrations were measured before and after a 12-h incubation by liquid-chromatography-coupled mass spectrometry (LC–MS)

[15] = The drug is tested on Clostridium sp. strain: fecal isolate for biotransformation. The drug concentrations were measured before and after a 12-h incubation by liquid-chromatography-coupled mass spectrometry (LC–MS); settings: 2 µM
[16] = The drug is tested on Alistipes indistinctus strain: DSM22520 for biotransformation. The drug concentrations were measured before and after a 12-h incubation by liquid-chromatography-coupled mass spectrometry (LC–MS); settings: 2 µM
[17] = The drug is tested on Collinsella aerofaciens strain: ATCC25986 for biotransformation. The drug concentrations were measured before and after a 12-h incubation by liquid-chromatography-coupled mass spectrometry (LC–MS); settings: 2 µM
[18] = The drug is tested on Bacteroides finegoldii strain: DSM17565 for biotransformation. The drug concentrations were measured before and after a 12-h incubation by liquid-chromatography-coupled mass spectrometry (LC–MS); settings: 2 µM
[19] = The drug is tested on Eubacterium rectale strain: ATCC33656 for biotransformation. The drug concentrations were measured before and after a 12-h incubation by liquid-chromatography-coupled mass spectrometry (LC–MS); settings: agathobacter rectalis, 2 µM
[20] = The drug is tested on Bifidobacterium ruminantium strain: fecal isolate for biotransformation. The drug concentrations were measured before and after a 12-h incubation by liquid-chromatography-coupled mass spectrometry (LC–MS); settings: 2 µM

| SMILES | Bacterial Biotransformation [2] | Bacterial Biotransformation [3] | Bacterial Biotransformation [4] | Bacterial Biotransformation [5] | Bacterial Biotransformation [6] | Bacterial Biotransformation [7] | Bacterial Biotransformation [8] | Bacterial Biotransformation [9] | Bacterial Biotransformation [10] | Bacterial Biotransformation [11] | Bacterial Biotransformation [13] | Bacterial Biotransformation [15] | Bacterial Biotransformation [16] | Bacterial Biotransformation [17] | Bacterial Biotransformation [18] | Bacterial Biotransformation [19] | Bacterial Biotransformation [20] | Bacterial Biotransformation [1] | Bacterial Biotransformation [12] | Bacterial Biotransformation [14] |
| --- | --- | --- | --- | --- | --- | --- | --- | --- | --- | --- | --- | --- | --- | --- | --- | --- | --- | --- | --- | --- |
| C[C@H]1O[C@@H](O[C@H]2[C@@H](O)C[C@H](O[C@H]3[C@@H](O)C[C@H](O[C@H]4CC[C@@]5(C)[C@H](CC[C@@H]6[C@@H]5C[C@@H](O)[C@]5(C)[C@@H](C7=CC(=O)OC7)CC[C@]65O)C4)O[C@@H]3C)O[C@@H]2C)C[C@H](O)[C@@H]1O [DIGOXIN] | Compound NOT metabolized | Compound NOT metabolized | Compound metabolized | Compound NOT metabolized | Compound metabolized | Compound NOT metabolized | Compound NOT metabolized | Compound metabolized | Compound NOT metabolized | Compound metabolized | Compound NOT metabolized | Compound metabolized | Compound NOT metabolized | Compound NOT metabolized |  |  |  | Compound NOT metabolized | Compound NOT metabolized | Compound metabolized |
| CN(C)CCOC(C)(c1ccccc1)c1ccccn1.O=C(O)CCC(=O)O (stereo not drawn) [DOXYLAMINE SUCCINATE] | Compound NOT metabolized | Compound NOT metabolized | Compound NOT metabolized | Compound NOT metabolized | Compound NOT metabolized | Compound NOT metabolized | Compound NOT metabolized | Compound NOT metabolized | Compound NOT metabolized |  | Compound NOT metabolized |  | Compound NOT metabolized | Compound NOT metabolized | Compound NOT metabolized |  |  | Compound NOT metabolized | Compound NOT metabolized | Compound NOT metabolized |
| O=C1NCC2(CCN(CCc3ccccc3)CC2)O1 [FENSPIRIDE] |  | Compound NOT metabolized | Compound metabolized | Compound metabolized | Compound metabolized | Compound NOT metabolized | Compound NOT metabolized | Compound NOT metabolized | Compound NOT metabolized | Compound metabolized | Compound NOT metabolized | Compound NOT metabolized | Compound NOT metabolized | Compound NOT metabolized | Compound NOT metabolized | Compound NOT metabolized |  | Compound NOT metabolized | Compound NOT metabolized |  |
| OCCN1CCN(CCCN2c3ccccc3Sc3ccc(C(F)(F)F)cc32)CC1 [FLUPHENAZINE] | Compound metabolized | Compound NOT metabolized | Compound metabolized | Compound metabolized | Compound metabolized |  | Compound NOT metabolized |  | Compound NOT metabolized | Compound metabolized | Compound metabolized |  | Compound NOT metabolized | Compound NOT metabolized | Compound metabolized | Compound metabolized | Compound NOT metabolized | Compound metabolized | Compound metabolized | Compound NOT metabolized |
| CC(=O)CCCCn1c(=O)c2c(ncn2C)n(C)c1=O [PENTOXIFYLLINE] |  | Compound NOT metabolized | Compound NOT metabolized | Compound NOT metabolized | Compound NOT metabolized | Compound NOT metabolized | Compound NOT metabolized | Compound NOT metabolized |  | Compound NOT metabolized | Compound NOT metabolized | Compound NOT metabolized | Compound NOT metabolized | Compound NOT metabolized |  | Compound NOT metabolized |  | Compound NOT metabolized | Compound NOT metabolized | Compound NOT metabolized |

More lines, main results first:

| Bacterial Biotransformation [2] | Bacterial Biotransformation [3] | Bacterial Biotransformation [4] | Bacterial Biotransformation [5] | Bacterial Biotransformation [6] | Bacterial Biotransformation [7] | Bacterial Biotransformation [8] | Bacterial Biotransformation [9] | Bacterial Biotransformation [10] | Bacterial Biotransformation [11] | Bacterial Biotransformation [13] | Bacterial Biotransformation [15] | Bacterial Biotransformation [16] | Bacterial Biotransformation [17] | Bacterial Biotransformation [18] | Bacterial Biotransformation [19] | Bacterial Biotransformation [20] | SMILES | Bacterial Biotransformation [1] | Bacterial Biotransformation [12] | Bacterial Biotransformation [14] |
| --- | --- | --- | --- | --- | --- | --- | --- | --- | --- | --- | --- | --- | --- | --- | --- | --- | --- | --- | --- | --- |
| Compound NOT metabolized | Compound NOT metabolized | Compound NOT metabolized | Compound NOT metabolized | Compound NOT metabolized | Compound NOT metabolized | Compound NOT metabolized | Compound NOT metabolized |  | Compound NOT metabolized | Compound NOT metabolized |  | Compound NOT metabolized | Compound NOT metabolized | Compound NOT metabolized | Compound NOT metabolized | Compound NOT metabolized | COc1ccccc1OCC(O)COC(N)=O (stereo not drawn) [METHOCARBAMOL] |  | Compound NOT metabolized | Compound NOT metabolized |
| Compound metabolized | Compound metabolized | Compound metabolized | Compound NOT metabolized | Compound metabolized | Compound NOT metabolized | Compound NOT metabolized | Compound metabolized | Compound NOT metabolized | Compound metabolized | Compound NOT metabolized | Compound NOT metabolized | Compound NOT metabolized | Compound NOT metabolized | Compound metabolized | Compound NOT metabolized | Compound metabolized | O=C(O)CCc1nc(-c2ccccc2)c(-c2ccccc2)o1 [OXAPROZIN] |  |  | Compound NOT metabolized |
